In patent publication US12285012B2, “Compositions comprising pyridine carboxylate herbicides with acetolactate synthase (ALS) inhibitor herbicides” (Corteva Agriscience LLC, priority 2018, dated 2025):
Where two headings read alike, the source gives them in different places.

How the values were obtained:
[1] = test system: common lambsquarters (CHEAL, Chenopodium album L.); test: Greenhouse postemergence herbicidal effect; type: in vivo
Experimental: (§1) Seeds of the desired test plant species were planted in a 90:10% v/v (volume/volume) mixture of PRO-MIX® BX (Premier Tech Horticulture, Quakertown, PA, USA) and PROFILE® GREENS GRADE™ (Profile Products LLC, Buffalo Grove, IL, USA) planting mixture, which typically has a pH of 5.2 to 6.2 and an organic matter content of at least 50 percent, in plastic pots with a surface area of 103.2 square centimeters (cm^2). […] The plants were grown for 7-36 days (d) in a greenhouse with an approximate 14-hour (h) photo-period which was maintained at about 23° C. during the day and 22° C. during the night. Nutrients and water were added on a regular basis and supplemental lighting was provided with overhead metal halide 1000-Watt lamps as necessary. The plants were employed for testing when they reached the second or third true leaf stage.
(§2) Emulsifiable concentrates of each of each pyridine carboxylate herbicide (Compound A or Compound B) were prepared at 100 grams acid equivalent per liter (g ae/L). The emulsifiable concentrates also included a safener, cloquintocet-mexyl, at 120 grams active ingredient per liter (g ai/L), unless otherwise noted below. An aliquot of each emulsifiable concentrate was placed in a 25 mL glass vial and diluted with an aqueous mixture of 1.25% (v/v) ACTIROB® B esterified rapeseed oil (Bayer Crop Science, Research Triangle Park, NC, USA) or MSO® Concentrate with LECI-TECH® methylated soybean oil (Loveland Products, Loveland, CO, USA) to obtain concentrated stock solutions at the highest application rate for each herbicide, based upon a 12 milliliter (mL) application volume at a rate of 187 liters per hectare (L/ha). The concentrated stock solutions were further diluted with an aqueous mixture of 1.25% v/v ACTIROB® B or MSO® Concentrate with LECI-TECH® to obtain stock solutions at reduced application rates for each herbicide. Spray solutions of the herbicide combinations (Compound A or Compound B plus ALS herbicide) were prepared by adding weighed amounts or aliquots of the ALS herbicides to the stock solutions of Compound A or Compound B to form 12-mL spray solutions in two- or three-way combinations.
(§3) The spray solutions were applied to the plant material with an overhead Mandel track sprayer equipped with 8002E nozzles calibrated to deliver 187 L/ha over an application area of 0.503 square meters (m^2) at a spray height of 18 inches (43 centimeters (cm)) above the average plant canopy. Control plants were sprayed in the same manner with the solvent blank. All pyridine carboxylate herbicide (component a) application rates are given as “g ae/ha” and all ALS inhibitor (component b) application rates are given as “g ai/ha.”
(§4) The treated plants and control plants were placed in a greenhouse as described above and watered by sub-irrigation to prevent wash-off of the test compounds. After 20-22 d, the condition of the test plants as compared with that of the control plants was determined visually and scored on a scale of 0 to 100 percent where 0 corresponds to no injury and 100 corresponds to complete kill.

[2] = test system: kochia (KCHSC, Kochia scoparia); test: Greenhouse postemergence herbicidal effect; type: in vivo
Experimental: as §1, §2, §3, §4

[3] = test system: wild mustard (SINAR, Sinapis arvensis); test: Greenhouse postemergence herbicidal effect; type: in vivo; details: for Obs % visual injury / % visual injury, Obs: SINAR
Experimental: (§5) The plants were grown for 7-36 days (d) in a greenhouse with an approximate 14-hour (h) photo-period which was maintained at about 23° C. during the day and 22° C. during the night. Nutrients and water were added on a regular basis and supplemental lighting was provided with overhead metal halide 1000-Watt lamps as necessary. The plants were employed for testing when they reached the second or third true leaf stage.
(§6) The emulsifiable concentrates also included a safener, cloquintocet-mexyl, at 120 grams active ingredient per liter (g ai/L), unless otherwise noted below.
(§7) Control plants were sprayed in the same manner with the solvent blank. All pyridine carboxylate herbicide (component a) application rates are given as “g ae/ha” and all ALS inhibitor (component b) application rates are given as “g ai/ha.”
as §4

[4] = test system: wild chamomile (MATCH, Matricaria chamomilla); test: Greenhouse postemergence herbicidal effect; type: in vivo
Experimental: as §5, §6, §7, §4

[5] = test system: Russian thistle (SASKR, Salsola kali); test: Greenhouse postemergence herbicidal effect; type: in vivo; details: for Obs % visual injury: SASKR
Experimental: as §5, §6, §7, §4

[6] = test system: Canadian thistle (CIRAR, Cirsium arvense); test: Greenhouse postemergence herbicidal effect; type: in vivo
Experimental: as §5, §6, §7, §4

[7] = test system: wild buckwheat (POLCO, Polygonum convolvulus); test: Greenhouse postemergence herbicidal effect; type: in vivo; details: for Obs % visual injury / % visual injury, Obs: POLCO
Experimental: as §5, §6, §7, §4

[8] = test system: winter rape (BRSNW, Brassica napus); test: Greenhouse postemergence herbicidal effect; type: in vivo; details: for Obs % visual injury / % visual injury, Obs: BRSNW
Experimental: as §5, §6, §7, §4

[9] = test system: pigweed (AMARE, Amaranthus retroflexus); test: Greenhouse postemergence herbicidal effect; type: in vivo; details: for Obs % visual injury / % visual injury, Obs: AMARE
Experimental: as §5, §6, §7, §4

spring wheat (TRZAS) = type: in vivo, Triticum aestivum
Experimental: as §5, §6, §7, §4

spring barley (HORVS) = type: in vivo, Hordeum vulgare
Experimental: as §5, §6, §7, §4

Cc1cnc(C2=NC(C)(C(C)C)C(=O)N2)c(C(=O)O)c1 (stereo not shown) [Imazapic, imazapic]
Obs % visual injury ([1]; CHEAL, Imazapic 35 g/ha): 78%
Obs % visual injury ([2]; KCHSC, Imazapic 35 g/ha): 80%
Obs % visual injury ([3]; Imazapic 35 g/ha): 91%
Obs % visual injury ([4]; MATCH, Imazapic 35 g/ha): 68%
Obs % visual injury ([5]; Imazapic 35 g/ha): 35%
Obs % visual injury ([6]; CIRAR, Imazapic 35 g/ha): 68%
Obs % visual injury ([7]; Imazapic 35 g/ha): 63%
Obs % visual injury ([8]; Imazapic 35 g/ha): 98%
Obs % visual injury ([9]; Imazapic 35 g/ha): 100%

COc1nn(C(=O)NS(=O)(=O)c2ccccc2OC(F)(F)F)c(=O)n1C [Flucarbazone, flucarbazone]
% visual injury, Obs ([1]; CHEAL, Flurcarbazone 30 g/ha): 10%
pest or weed control at 30 g/ha ([2]; Bassia scoparia, post-emergence, KCHSC, Flurcarbazone 30 g/ha, read-out: % visual injury, Obs): 25%
% visual injury, Obs ([3]; Flurcarbazone 30 g/ha): 88%
% visual injury, Obs ([4]; MATCH, Flurcarbazone 30 g/ha): 18%
pest or weed control at 30 g/ha ([6]; Cirsium arvense, post-emergence, CIRAR, Flurcarbazone 30 g/ha, read-out: % visual injury, Obs): 28%
% visual injury, Obs ([7]; Flurcarbazone 30 g/ha): 88%
% visual injury, Obs ([8]; Flurcarbazone 30 g/ha): 83%
% visual injury, Obs ([9]; Flurcarbazone 30 g/ha): 98%

COc1nc(C)nc(N(C)C(=O)NS(=O)(=O)c2ccccc2C(=O)O)n1 [Tribenuron, tribenuron]
% visual injury, Obs ([1]; CHEAL, Tribenuron 15 g/ha): 96%
% visual injury, Obs ([2]; KCHSC, Tribenuron 15 g/ha): 50%
% visual injury, Obs ([3]; Tribenuron 15 g/ha): 95%
% visual injury, Obs ([4]; MATCH, Tribenuron 15 g/ha): 87%
% visual injury, Obs ([6]; CIRAR, Tribenuron 15 g/ha): 89%
% visual injury, Obs ([7]; Tribenuron 15 g/ha): 78%
% visual injury, Obs ([8]; Tribenuron 15 g/ha): 99%
% visual injury, Obs ([9]; Tribenuron 15 g/ha): 100%

CCc1cnc(C2=NC(C)(C(C)C)C(=O)N2)c(C(=O)O)c1 (stereo not shown) [Imazethapyr, imazethapyr]
% visual injury, Obs ([1]; 35 g/ha): 28%
pest or weed control at 35 g/ha ([2]; Bassia scoparia, post-emergence, 35 g/ha, read-out: % visual injury, Obs): 53%
% visual injury, Obs ([4]; 35 g/ha): 18%
% visual injury, Obs ([5]; 35 g/ha): 40%
pest or weed control at 35 g/ha ([6]; Cirsium arvense, post-emergence, 35 g/ha, read-out: % visual injury, Obs): 40%

iodosulfuron
% visual injury, Obs ([1]; CHEAL, Iodosulfuron 33.75 g/ha): 90%
% visual injury, Obs ([2]; KCHSC, Iodosulfuron 33.75 g/ha): 70%
% visual injury, Obs (spring wheat (TRZAS); TRZAS, Iodosulfuron 33.75 g/ha): 0%
% visual injury, Obs (spring barley (HORVS); HORVS, Iodosulfuron 33.75 g/ha): 0%
% visual injury, Obs ([3]; Iodosulfuron 33.75 g/ha): 100%
% visual injury, Obs ([4]; MATCH, Iodosulfuron 33.75 g/ha): 85%
% visual injury, Obs ([6]; CIRAR, Iodosulfuron 33.75 g/ha): 85%
% visual injury, Obs ([7]; Iodosulfuron 33.75 g/ha): 85%
% visual injury, Obs ([8]; Iodosulfuron 33.75 g/ha): 98%
% visual injury, Obs ([9]; Iodosulfuron 33.75 g/ha): 98%

imazamethabenz
Obs % visual injury ([1]; CHEAL, Imazamethabenz 100 g/ha): 0%
Obs % visual injury ([1]; CHEAL, Imazamethabenz 200 g/ha): 0%
% visual injury ([1]; Imazamethabenz 100 g/ha): 0%
% visual injury ([2]; Imazamethabenz 100 g/ha): 0%
Obs % visual injury ([2]; KCHSC, Imazamethabenz 200 g/ha): 0%
% visual injury (spring wheat (TRZAS); Imazamethabenz 100 g/ha): 0%
Obs % visual injury (spring wheat (TRZAS); TRZAS, Imazamethabenz 100 g/ha): 0%
Obs % visual injury (spring wheat (TRZAS); TRZAS, Imazamethabenz 200 g/ha): 0%
Obs % visual injury (spring barley (HORVS); HORVS, Imazamethabenz 100 g/ha): 0%
Obs % visual injury (spring barley (HORVS); HORVS, Imazamethabenz 200 g/ha): 0%
% visual injury (spring barley (HORVS); Imazamethabenz 100 g/ha): 0%
% visual injury ([3]; Imazamethabenz 100 g/ha): 68%
Obs % visual injury ([3]; Imazamethabenz 200 g/ha): 75%
% visual injury ([4]; Imazamethabenz 100 g/ha): 0%
Obs % visual injury ([4]; MATCH, Imazamethabenz 200 g/ha): 5%
% visual injury ([5]; Imazamethabenz 100 g/ha): 0%
Obs % visual injury ([5]; Imazamethabenz 100 g/ha): 13%
Obs % visual injury ([6]; CIRAR, Imazamethabenz 100 g/ha): 5%
Obs % visual injury ([6]; CIRAR, Imazamethabenz 200 g/ha): 5%
% visual injury ([6]; Imazamethabenz 100 g/ha): 0%
% visual injury ([7]; Imazamethabenz 100 g/ha): 70%
Obs % visual injury ([7]; Imazamethabenz 200 g/ha): 88%
Obs % visual injury ([8]; Imazamethabenz 200 g/ha): 53%
% visual injury ([8]; Imazamethabenz 100 g/ha): 35%
Obs % visual injury ([9]; Imazamethabenz 200 g/ha): 5%
% visual injury ([9]; Imazamethabenz 100 g/ha): 0%

COc1nc(C)nc(NC(=O)NS(=O)(=O)c2ccccc2C(=O)O)n1 [Metsulfuron, metsulfuron]
% visual injury, Obs ([1]; CHEAL, Metsulfuron 3 g/ha): 98%
% visual injury, Obs ([2]; KCHSC, Metsulfuron 3 g/ha): 75%
% visual injury, Obs ([3]; Metsulfuron 3 g/ha): 88%
% visual injury, Obs ([4]; MATCH, Metsulfuron 3 g/ha): 96%
% visual injury, Obs ([6]; CIRAR, Metsulfuron 3 g/ha): 85%
% visual injury, Obs ([7]; Metsulfuron 3 g/ha): 85%
% visual injury, Obs ([8]; Metsulfuron 3 g/ha): 90%
% visual injury, Obs ([9]; Metsulfuron 3 g/ha): 100%

mesosulfuron
% visual injury, Obs ([1]; CHEAL, Mesosulfuron 9 g/ha): 48%
% visual injury ([1]; Mesosulfuron 3 g/ha): 30%
% visual injury, Obs ([2]; KCHSC, Mesosulfuron 9 g/ha): 13%
% visual injury ([2]; Mesosulfuron 3 g/ha): 0%
% visual injury ([3]; Mesosulfuron 3 g/ha): 98%
% visual injury, Obs ([3]; Mesosulfuron 9 g/ha): 94%
Obs % visual injury ([4]; MATCH, Mesosulfuron 3 g/ha): 10%
% visual injury, Obs ([4]; MATCH, Mesosulfuron 9 g/ha): 45%
% visual injury ([4]; Mesosulfuron 3 g/ha): 15%
% visual injury ([5]; Mesosulfuron 3 g/ha): 15%
% visual injury, Obs ([6]; CIRAR, Mesosulfuron 9 g/ha): 73%
% visual injury ([6]; Mesosulfuron 3 g/ha): 78%
% visual injury ([7]; Mesosulfuron 3 g/ha): 20%
Obs % visual injury ([7]; Mesosulfuron 3 g/ha): 3%
% visual injury, Obs ([7]; Mesosulfuron 9 g/ha): 28%
% visual injury, Obs ([8]; Mesosulfuron 9 g/ha): 95%
% visual injury ([8]; Mesosulfuron 3 g/ha): 100%
% visual injury, Obs ([9]; Mesosulfuron 9 g/ha): 100%
% visual injury ([9]; Mesosulfuron 3 g/ha): 78%

COc1cc(OC)nc(Oc2cccc(Oc3nc(OC)cc(OC)n3)c2C(=O)O)n1 [Bispyrabac]
% visual injury Obs ([1]; Bispyrabac 20 g/ha): 0%
% visual injury Obs ([2]; Bispyrabac 20 g/ha): 10%
% visual injury Obs (spring wheat (TRZAS); Bispyrabac 20 g/ha): 0%
% visual injury Obs (spring barley (HORVS); Bispyrabac 20 g/ha): 13%
% visual injury Obs ([3]; Bispyrabac 20 g/ha): 96%
% visual injury Obs ([4]; Bispyrabac 20 g/ha): 23%
% visual injury Obs ([6]; Bispyrabac 20 g/ha): 68%
% visual injury Obs ([7]; Bispyrabac 20 g/ha): 96%
% visual injury Obs ([8]; Bispyrabac 20 g/ha): 100%
% visual injury Obs ([9]; Bispyrabac 20 g/ha): 100%

Cc1ccn2nc(S(=O)(=O)Nc3c(F)cccc3F)nc2n1 [Flumetsulam, flumetsulam]
% visual injury Obs ([1]; Flumetsulam 4.375 g/ha): 45%
% visual injury Obs ([2]; Flumetsulam 4.375 g/ha): 5%
% visual injury Obs ([3]; Flumetsulam 4.375 g/ha): 50%
% visual injury Obs ([4]; Flumetsulam 4.375 g/ha): 83%
% visual injury Obs ([5]; Flumetsulam 4.375 g/ha): 0%
% visual injury Obs ([6]; Flumetsulam 4.375 g/ha): 5%
% visual injury Obs ([7]; Flumetsulam 4.375 g/ha): 5%
% visual injury Obs ([8]; Flumetsulam 4.375 g/ha): 40%
% visual injury Obs ([9]; Flumetsulam 4.375 g/ha): 98%
